Experimental data from ChEMBL document CHEMBL1770132, “The discovery of high affinity agonists of GPR109a with reduced serum shift and improved ADME properties” (Bioorg Med Chem Lett, 2011).

Columns and labels:
Assay type in all cases: ADME, organism-based
[1] = Half life in plasma of C57BL/6 mouse at 1 mg/kg, iv and 2 mg/kg, po
[2] = Half life in Sprague-Dawley rat; settings: in vivo
[3] = Half life in plasma of C57BL/6 mouse
[4] = Bioavailability in Sprague-Dawley rat at 1 mg/kg, iv and 2 mg/kg, po; settings: in vivo
[5] = Plasma clearance in Sprague-Dawley rat
[6] = Bioavailability in C57BL/6 mouse at 1 mg/kg, iv and 2 mg/kg, po; settings: in vivo
[7] = Plasma clearance in C57BL/6 mouse

| Structure (SMILES) | half-life [1] | half-life [2] | half-life [3] | bioavailability [4] | clearance [5] | bioavailability [6] | clearance [7] |
| --- | --- | --- | --- | --- | --- | --- | --- |
| O=C(CCc1ccc(-c2ccc(O)cc2)cc1)Nc1ccccc1C(=O)O | 2.4 h | – | – | – | – | – | – |
| O=C(CCc1nc(-c2ccc(O)cn2)no1)NC1=C(C(=O)O)CCCC1 | – | 2.2 h | 1.4 h | 8.1% | 1 mL/min/kg | – | – |
| N[C@@H](Cc1nc(-c2ccc(O)cn2)no1)C(=O)NC1=C(C(=O)O)CCCC1 | – | 2.3 h | 4.5 h | 2% | 0.7 mL/min/kg | 9% | 2.5 mL/min/kg |
| C[C@@H]1CCC(C(=O)O)=C(NC(=O)[C@@H](N)Cc2nc(-c3ccc(O)cn3)no2)C1 | – | – | 2.64 h | – | – | 7.5% | 9.22 mL/min/kg |
| C[C@@H]1CCC(C(=O)O)=C(NC(=O)[C@@H](N)Cc2nc(-c3ccc(F)cn3)no2)C1 | – | 5.5 h | 5.6 h | 81% | 0.7 mL/min/kg | 100% | 1.7 mL/min/kg |
| C[C@@H]1CCC(C(=O)O)=C(NC(=O)CCc2nc(-c3ccc(F)cn3)no2)C1 | – | – | 4.7 h | – | – | 54% | 3.3 mL/min/kg |
